According to ChEMBL document CHEMBL1201862, “PubChem BioAssay data set” (2004):
Calls of active or inactive are those of the source.

Experiments:
[1] = molecular target: T1, Bifunctional protein GlmU (Mycobacterium tuberculosis, UniProt P9WMN3); assay: Inhibitors of Mycobacterial Glucosamine-1-phosphate acetyl transferase (GlmU). Secondary screen.; design: species or system Mycobacterium tuberculosis H37Rv
T1 sequence (P9WMN3 whole entry): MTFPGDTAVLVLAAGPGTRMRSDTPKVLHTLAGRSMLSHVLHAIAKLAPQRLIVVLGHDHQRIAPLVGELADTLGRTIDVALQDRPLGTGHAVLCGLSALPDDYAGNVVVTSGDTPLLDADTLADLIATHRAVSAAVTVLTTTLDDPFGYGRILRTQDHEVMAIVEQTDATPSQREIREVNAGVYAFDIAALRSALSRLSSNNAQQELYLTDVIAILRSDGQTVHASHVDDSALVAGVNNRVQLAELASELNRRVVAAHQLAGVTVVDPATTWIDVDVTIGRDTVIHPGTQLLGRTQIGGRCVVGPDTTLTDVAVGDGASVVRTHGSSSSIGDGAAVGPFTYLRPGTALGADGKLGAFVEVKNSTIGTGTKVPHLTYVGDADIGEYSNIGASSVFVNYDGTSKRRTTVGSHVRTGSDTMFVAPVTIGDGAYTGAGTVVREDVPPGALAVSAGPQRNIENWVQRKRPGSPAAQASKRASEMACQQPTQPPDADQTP

Fatty acid synthase [2] = molecular target: T2, Fatty acid synthase (Homo sapiens, UniProt P49327); assay: FAS thioesterase domain inhibitors, dose response, biochemical, kinetic fluorescence intensity (AID 624326); format: functional;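 also: rate of fluorescence rise from hydrolysis of a fluorogenic O-methyl fluorescein ester substrate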
[3] = molecular target: T3, Kappa-type opioid receptor (Homo sapiens, UniProt P41145); format: functional
Fatty acid synthase [4] = molecular target: T2, Fatty acid synthase; assay: FAS thioesterase domain inhibitors, dose response, biochemical, endpoint fluorescence intensity, uHTS hits (AID 624327); format: functional;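 also: fluorescence from hydrolysis of an O-methyl fluorescein acyl ester substrate by the enzyme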
Beta Lactamase = Beta Lactamase (Pseudomonas aeruginosa, UniProt Q932Y6); assay: beta-lactamase reporter inhibitor potency, dose response, artefact control for TLR9-MyD88 binding inhibitor project, BLA reporter cells, FRET fluorescence (AID 588341); format: cell-based;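 also: cell based assay in CHO-K1 cells stably expressing beta-lactamase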
[5] = molecular target: T4, Delta-type opioid receptor (Homo sapiens, UniProt P41143); assay: HTS Image-Based Screen for Antagonists of the DOR Receptor. [Related pubchem assays (depositor defined):AID1777, AID1785, AID1786, AID2133]; format: functional
[6] = Vero E6 cell cytotoxicity, dose response, cytotoxicity control for non-replicating M. tuberculosis project, secondary assay (AID 492998); format: functional, VeroE6; conditions: Vero C1008
[7] = molecular target: T5, Microphthalmia-associated transcription factor (Homo sapiens, UniProt O75030); assay: TRPM1 promoter luciferase signal decrease, dose response, MITF inhibitor project, cell-based, SK-MEL-5, cherry-picked, set 3 (AID 493073); format: functional
T5 sequence (O75030 whole entry): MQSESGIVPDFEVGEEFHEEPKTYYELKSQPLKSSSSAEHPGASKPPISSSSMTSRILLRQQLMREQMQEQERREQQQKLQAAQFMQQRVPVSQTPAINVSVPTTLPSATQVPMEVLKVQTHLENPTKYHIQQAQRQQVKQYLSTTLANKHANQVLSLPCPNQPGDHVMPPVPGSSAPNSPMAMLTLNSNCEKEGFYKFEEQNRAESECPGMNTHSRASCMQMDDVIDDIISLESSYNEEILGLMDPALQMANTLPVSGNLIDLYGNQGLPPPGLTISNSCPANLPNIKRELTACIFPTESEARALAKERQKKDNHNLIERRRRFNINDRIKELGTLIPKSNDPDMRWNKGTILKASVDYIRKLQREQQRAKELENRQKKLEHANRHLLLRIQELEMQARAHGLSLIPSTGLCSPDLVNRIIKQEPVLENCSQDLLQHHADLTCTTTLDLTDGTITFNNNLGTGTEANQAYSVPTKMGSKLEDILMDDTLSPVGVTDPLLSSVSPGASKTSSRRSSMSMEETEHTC

[8] = control 3'UTR Renilla luciferase suppression, dose response, counter-screen for Shn3 inhibitor project, cell-based, Clone20-Shn3RL, cherry-picked (AID 624133); format: functional
cells = format: functional
Beta-galactosidase = Beta-galactosidase (Escherichia coli, UniProt Q8VNN2); format: functional
CHO = assay: cytotoxicity in TLR9-MyD88 CHO cells, dose response, cytotoxicity control for TLR9-MyD88 binding inhibitor project, cell-based, luminescence (AID 588339); format: functional, hamster; conditions: Cricetulus griseus;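 also: CHO cells stably coexpressing TLR9 and MyD88 fusions from primary screen; compound exposure lasted 48 hours before viability readout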
Mu-type opioid receptor = Mu-type opioid receptor (Homo sapiens, UniProt P35372); assay: HTS Image-Based Screen for Agonists of the MOR Receptor. [Related pubchem assays (depositor defined):AID1777, AID1785, AID1786, AID2133]; format: functional;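 also: imaging of beta-arrestin GFP recruitment into spots after receptor activation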
[9] = molecular target: T4, Delta-type opioid receptor; assay: HTS Image-Based Screen for Agonists of the DOR Receptor. [Related pubchem assays (depositor defined):AID1777, AID1786, AID2133]; format: functional
[10] = HepG2 cell cytotoxicity, dose response, cytotoxicity control for non-replicating M. tuberculosis project (AID 489018); format: functional; conditions: Mycobacterium tuberculosis
[11] = cytotoxicity toward NIH3T3 fibroblasts, dose response, counter-screen, cell-based, ATP luminescence, mouse fibroblasts (AID 2010); format: functional;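 also: cells exposed to compound for about 90 hours before reading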
[12] = growth suppression of PTEN-null colon cells, dose response, cell-based, HCT116 PTEN knockout (AID 1047); format: functional;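 also: HCT116 colon tumor cells with PTEN knocked out; cells exposed to compound for 60 hours before readout; potency for loss of cell viability measured by luminescence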
[13] = THP-1 cell cytotoxicity, dose response, cytotoxicity control for non-replicating M. tuberculosis project (AID 489025); format: functional
[14] = growth suppression of beta-catenin-knockout colon cells, dose response, cell-based, HCT116, human colon tumor (AID 1045); format: functional;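 also: HCT116 colon tumor cells with beta catenin knocked out; cells exposed to compound for 60 hours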
[15] = Shn3 3'UTR reporter inhibitors, dose response, cell-based, Clone20 osteoblasts, firefly luciferase, cherry-picked (AID 624132); format: functional;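 also: firefly luciferase luminescence from reporter carrying the Shn3 3'UTR in osteoblasts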
[16] = molecular target: T3, Kappa-type opioid receptor; format: functional; remark: listed apart in the source
[17] = HepG2 cell cytotoxicity, dose response, cytotoxicity control for Shn3 inhibitor project, CellTiter-Glo, cherry-picked (AID 624134); format: functional, cell-based
[18] = inhibitors of intracellular T. cruzi replication, confirmation, NIH3T3 host cells, beta-gal luminescence (AID 2044); format: functional, cell-based;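 also: intracellular parasites grown in NIH/3T3 mouse fibroblasts as host cells; luminescent beta-galactosidase reporter signal from transgenic T. cruzi replicating inside host cells; inhibitors lower the luminescence signal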
[19] = molecular target: T6, Sentrin-specific protease 8 (Homo sapiens, UniProt Q96LD8); assay: SENP8 protease inhibitors, SAR follow-up, biochemical, luminescence (AID 504501); format: functional
T6 sequence (Q96LD8 whole entry): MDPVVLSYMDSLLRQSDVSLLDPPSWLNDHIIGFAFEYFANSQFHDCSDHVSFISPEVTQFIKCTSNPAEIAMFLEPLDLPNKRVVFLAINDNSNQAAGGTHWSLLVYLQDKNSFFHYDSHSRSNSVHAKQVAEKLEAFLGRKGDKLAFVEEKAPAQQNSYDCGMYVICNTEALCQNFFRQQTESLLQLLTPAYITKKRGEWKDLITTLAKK

[20] = molecular target: T7, Sentrin-specific protease 7 (Homo sapiens, UniProt Q9BQF6); assay: SENP7 protease inhibitors, SAR follow-up, biochemical, luminescence (AID 504497); format: functional
T7 sequence (Q9BQF6 whole entry): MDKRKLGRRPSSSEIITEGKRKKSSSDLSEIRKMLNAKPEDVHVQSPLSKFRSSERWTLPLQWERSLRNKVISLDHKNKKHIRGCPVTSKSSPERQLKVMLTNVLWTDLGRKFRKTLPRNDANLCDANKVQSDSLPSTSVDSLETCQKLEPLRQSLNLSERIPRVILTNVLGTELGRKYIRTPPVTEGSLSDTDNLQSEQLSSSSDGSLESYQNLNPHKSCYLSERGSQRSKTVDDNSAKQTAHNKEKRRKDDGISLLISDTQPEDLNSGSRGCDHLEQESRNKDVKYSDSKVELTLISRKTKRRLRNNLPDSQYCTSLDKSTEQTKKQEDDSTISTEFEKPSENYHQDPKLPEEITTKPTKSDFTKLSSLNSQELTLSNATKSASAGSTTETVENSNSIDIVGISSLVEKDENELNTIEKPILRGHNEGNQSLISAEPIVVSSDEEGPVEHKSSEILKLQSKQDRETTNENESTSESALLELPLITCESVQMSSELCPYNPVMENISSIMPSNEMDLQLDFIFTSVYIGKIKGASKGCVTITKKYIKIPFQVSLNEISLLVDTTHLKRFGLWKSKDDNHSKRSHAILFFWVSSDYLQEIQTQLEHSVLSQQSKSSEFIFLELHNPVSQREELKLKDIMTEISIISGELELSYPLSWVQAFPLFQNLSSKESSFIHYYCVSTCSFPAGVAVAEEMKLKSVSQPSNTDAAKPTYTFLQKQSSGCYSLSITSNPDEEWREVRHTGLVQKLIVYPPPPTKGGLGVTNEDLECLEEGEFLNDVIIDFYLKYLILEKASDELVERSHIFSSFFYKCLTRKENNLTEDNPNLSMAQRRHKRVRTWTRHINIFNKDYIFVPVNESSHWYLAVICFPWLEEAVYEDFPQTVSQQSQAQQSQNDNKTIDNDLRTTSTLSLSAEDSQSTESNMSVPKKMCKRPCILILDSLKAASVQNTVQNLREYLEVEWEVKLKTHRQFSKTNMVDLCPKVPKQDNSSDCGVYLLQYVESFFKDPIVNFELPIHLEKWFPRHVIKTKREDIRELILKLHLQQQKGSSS

[21] = molecular target: T8, Sentrin-specific protease 6 (Homo sapiens, UniProt Q9GZR1); assay: SAR Analysis of small molecule inhibitors of Sentrin-specific protease 6 (SENP6) using a Luminescent assay. [Related pubchem assays (depositor defined):AID2582, AID2599]; format: functional
T8 sequence (Q9GZR1 whole entry): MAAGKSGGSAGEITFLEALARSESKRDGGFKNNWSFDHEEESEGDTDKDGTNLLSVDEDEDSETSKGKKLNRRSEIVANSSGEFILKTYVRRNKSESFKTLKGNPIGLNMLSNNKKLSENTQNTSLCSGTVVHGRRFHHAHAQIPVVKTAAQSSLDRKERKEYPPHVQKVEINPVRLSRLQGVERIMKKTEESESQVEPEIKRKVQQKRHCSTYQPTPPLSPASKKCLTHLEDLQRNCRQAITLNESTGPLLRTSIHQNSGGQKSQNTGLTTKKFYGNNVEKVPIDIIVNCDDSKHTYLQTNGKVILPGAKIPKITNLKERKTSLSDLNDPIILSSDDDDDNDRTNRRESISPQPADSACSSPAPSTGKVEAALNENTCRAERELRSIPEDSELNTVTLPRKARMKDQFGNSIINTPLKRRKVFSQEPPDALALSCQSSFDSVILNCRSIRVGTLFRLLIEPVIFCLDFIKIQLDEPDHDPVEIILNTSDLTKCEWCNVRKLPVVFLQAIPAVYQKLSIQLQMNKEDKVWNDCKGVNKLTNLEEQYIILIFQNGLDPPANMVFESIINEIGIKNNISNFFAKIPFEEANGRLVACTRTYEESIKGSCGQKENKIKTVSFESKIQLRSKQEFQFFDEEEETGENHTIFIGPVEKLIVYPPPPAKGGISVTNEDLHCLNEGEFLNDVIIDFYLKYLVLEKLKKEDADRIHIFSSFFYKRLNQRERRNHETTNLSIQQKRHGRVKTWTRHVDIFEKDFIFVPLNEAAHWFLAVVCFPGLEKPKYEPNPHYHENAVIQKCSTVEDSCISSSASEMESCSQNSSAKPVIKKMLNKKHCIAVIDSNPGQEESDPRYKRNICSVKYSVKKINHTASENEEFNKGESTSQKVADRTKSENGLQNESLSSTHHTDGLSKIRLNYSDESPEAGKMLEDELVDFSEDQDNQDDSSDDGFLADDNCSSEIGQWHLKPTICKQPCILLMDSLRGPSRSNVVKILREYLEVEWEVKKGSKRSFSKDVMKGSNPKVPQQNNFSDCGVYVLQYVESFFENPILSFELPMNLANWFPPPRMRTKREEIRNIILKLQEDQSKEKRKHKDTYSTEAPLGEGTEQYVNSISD

Caspase-3 [22] = molecular target: T9, Caspase-3 (Homo sapiens, UniProt P42574); assay: SAR Analysis of small molecule inhibitors of Sentrin-specific proteases (SENPs) using a Caspase-3 Selectivity assay. [Related pubchem assays (depositor defined):AID2540, AID2599, AID434973, AID489001]; format: functional
T9 sequence (P42574 whole entry): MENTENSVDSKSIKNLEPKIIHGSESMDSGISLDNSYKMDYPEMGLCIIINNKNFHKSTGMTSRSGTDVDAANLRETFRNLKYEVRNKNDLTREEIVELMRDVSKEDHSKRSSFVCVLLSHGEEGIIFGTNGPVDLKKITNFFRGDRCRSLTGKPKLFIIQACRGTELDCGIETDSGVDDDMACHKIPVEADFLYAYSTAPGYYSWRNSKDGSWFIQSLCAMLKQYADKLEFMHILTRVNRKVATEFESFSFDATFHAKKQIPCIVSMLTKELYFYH

[23] = molecular target: T7, Sentrin-specific protease 7; format: functional
Caspase-3 [24] = molecular target: T9, Caspase-3; format: functional
[25] = molecular target: T8, Sentrin-specific protease 6; format: functional
[26] = molecular target: T6, Sentrin-specific protease 8; format: functional

T4 sequence (P41143 whole entry): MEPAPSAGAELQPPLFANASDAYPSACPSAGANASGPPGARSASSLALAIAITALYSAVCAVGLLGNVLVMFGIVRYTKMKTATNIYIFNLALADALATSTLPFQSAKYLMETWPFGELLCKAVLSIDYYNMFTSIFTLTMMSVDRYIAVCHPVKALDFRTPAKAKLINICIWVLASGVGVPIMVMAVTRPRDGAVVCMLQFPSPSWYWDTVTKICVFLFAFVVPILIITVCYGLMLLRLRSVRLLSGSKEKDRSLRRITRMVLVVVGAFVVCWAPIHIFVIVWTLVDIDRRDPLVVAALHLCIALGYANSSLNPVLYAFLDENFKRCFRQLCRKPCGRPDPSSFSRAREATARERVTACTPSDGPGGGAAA
T2 sequence (P49327 whole entry, the tested form may be a part): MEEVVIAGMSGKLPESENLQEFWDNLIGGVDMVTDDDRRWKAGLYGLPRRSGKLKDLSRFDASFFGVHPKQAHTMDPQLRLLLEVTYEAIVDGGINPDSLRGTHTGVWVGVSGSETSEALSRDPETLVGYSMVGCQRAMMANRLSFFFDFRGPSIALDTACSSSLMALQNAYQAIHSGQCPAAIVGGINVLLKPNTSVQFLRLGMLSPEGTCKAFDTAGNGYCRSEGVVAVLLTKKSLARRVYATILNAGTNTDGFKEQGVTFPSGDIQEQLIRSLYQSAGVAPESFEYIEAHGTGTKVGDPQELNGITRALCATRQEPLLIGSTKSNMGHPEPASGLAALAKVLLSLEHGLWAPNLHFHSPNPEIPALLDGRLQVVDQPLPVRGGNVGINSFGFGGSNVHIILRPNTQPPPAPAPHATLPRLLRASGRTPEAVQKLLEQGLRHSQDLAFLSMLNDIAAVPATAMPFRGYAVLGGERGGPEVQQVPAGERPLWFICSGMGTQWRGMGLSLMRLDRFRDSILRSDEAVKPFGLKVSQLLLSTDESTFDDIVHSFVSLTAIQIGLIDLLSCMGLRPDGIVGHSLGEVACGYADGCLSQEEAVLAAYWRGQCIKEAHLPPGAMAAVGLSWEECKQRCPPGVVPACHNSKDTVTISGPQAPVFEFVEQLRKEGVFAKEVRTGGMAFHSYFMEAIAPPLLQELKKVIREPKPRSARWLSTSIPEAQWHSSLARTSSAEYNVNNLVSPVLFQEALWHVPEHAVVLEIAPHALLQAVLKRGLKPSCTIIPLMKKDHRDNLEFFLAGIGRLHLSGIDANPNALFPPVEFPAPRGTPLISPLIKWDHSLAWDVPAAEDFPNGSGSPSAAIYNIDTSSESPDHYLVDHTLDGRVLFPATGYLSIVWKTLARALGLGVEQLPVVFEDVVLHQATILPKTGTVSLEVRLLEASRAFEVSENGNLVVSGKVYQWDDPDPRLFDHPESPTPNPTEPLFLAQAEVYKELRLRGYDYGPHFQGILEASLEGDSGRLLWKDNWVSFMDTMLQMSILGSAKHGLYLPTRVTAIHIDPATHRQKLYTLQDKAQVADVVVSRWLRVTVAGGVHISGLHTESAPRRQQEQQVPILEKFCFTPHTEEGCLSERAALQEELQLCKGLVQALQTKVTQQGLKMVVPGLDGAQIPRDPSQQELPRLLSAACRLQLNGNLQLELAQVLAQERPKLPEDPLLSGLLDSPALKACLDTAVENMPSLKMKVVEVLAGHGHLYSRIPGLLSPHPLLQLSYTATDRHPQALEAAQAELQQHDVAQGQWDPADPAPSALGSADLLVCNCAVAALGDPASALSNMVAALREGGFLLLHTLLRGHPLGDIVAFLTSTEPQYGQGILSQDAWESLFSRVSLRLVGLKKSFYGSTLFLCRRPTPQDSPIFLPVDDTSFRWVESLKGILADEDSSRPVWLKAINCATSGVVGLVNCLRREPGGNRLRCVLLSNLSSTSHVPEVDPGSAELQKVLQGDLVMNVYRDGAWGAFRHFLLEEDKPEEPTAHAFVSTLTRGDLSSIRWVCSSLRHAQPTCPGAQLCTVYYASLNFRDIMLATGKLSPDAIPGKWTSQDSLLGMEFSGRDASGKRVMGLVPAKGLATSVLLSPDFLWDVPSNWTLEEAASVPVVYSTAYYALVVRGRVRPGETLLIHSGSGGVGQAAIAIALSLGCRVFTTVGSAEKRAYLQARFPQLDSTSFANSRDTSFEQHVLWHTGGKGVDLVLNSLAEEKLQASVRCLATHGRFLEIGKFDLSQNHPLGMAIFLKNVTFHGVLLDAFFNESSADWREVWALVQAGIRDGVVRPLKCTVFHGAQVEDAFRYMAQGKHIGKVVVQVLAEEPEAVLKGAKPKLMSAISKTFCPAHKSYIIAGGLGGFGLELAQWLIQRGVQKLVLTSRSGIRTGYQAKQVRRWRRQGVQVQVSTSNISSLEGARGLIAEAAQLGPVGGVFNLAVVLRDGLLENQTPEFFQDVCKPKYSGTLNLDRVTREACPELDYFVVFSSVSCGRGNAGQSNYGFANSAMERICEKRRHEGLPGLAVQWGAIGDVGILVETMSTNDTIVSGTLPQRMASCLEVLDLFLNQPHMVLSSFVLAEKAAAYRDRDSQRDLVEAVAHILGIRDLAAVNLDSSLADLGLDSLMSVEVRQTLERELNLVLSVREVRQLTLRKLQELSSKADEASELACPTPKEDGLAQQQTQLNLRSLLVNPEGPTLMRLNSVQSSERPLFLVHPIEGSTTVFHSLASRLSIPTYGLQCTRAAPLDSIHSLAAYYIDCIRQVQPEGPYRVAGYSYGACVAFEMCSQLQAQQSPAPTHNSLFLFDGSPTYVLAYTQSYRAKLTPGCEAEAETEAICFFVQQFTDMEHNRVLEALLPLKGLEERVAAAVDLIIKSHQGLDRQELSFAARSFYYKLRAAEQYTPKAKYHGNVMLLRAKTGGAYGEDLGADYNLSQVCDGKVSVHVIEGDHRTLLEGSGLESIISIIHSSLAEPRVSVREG
T3 sequence (P41145 whole entry, the tested form may be a part): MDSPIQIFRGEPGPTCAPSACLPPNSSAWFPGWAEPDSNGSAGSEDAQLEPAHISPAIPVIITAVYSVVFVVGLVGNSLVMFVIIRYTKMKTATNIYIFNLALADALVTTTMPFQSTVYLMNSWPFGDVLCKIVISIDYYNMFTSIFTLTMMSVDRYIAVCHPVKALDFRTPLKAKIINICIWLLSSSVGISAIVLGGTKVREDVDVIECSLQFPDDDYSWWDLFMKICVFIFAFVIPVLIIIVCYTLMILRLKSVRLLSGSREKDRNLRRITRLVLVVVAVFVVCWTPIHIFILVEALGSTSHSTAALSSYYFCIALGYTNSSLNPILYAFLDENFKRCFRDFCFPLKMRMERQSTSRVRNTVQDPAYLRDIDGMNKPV
Sequence of Beta Lactamase (Q932Y6 whole entry): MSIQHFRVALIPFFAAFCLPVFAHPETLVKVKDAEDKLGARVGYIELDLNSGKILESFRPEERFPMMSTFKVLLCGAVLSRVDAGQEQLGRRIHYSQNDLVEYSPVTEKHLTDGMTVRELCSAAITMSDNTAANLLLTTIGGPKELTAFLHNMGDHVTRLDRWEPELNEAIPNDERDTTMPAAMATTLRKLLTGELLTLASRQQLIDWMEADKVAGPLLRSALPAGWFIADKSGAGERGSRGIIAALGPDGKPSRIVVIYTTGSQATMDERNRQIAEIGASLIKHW
Sequence of Beta-galactosidase (Q8VNN2 whole entry, the tested form may be a part): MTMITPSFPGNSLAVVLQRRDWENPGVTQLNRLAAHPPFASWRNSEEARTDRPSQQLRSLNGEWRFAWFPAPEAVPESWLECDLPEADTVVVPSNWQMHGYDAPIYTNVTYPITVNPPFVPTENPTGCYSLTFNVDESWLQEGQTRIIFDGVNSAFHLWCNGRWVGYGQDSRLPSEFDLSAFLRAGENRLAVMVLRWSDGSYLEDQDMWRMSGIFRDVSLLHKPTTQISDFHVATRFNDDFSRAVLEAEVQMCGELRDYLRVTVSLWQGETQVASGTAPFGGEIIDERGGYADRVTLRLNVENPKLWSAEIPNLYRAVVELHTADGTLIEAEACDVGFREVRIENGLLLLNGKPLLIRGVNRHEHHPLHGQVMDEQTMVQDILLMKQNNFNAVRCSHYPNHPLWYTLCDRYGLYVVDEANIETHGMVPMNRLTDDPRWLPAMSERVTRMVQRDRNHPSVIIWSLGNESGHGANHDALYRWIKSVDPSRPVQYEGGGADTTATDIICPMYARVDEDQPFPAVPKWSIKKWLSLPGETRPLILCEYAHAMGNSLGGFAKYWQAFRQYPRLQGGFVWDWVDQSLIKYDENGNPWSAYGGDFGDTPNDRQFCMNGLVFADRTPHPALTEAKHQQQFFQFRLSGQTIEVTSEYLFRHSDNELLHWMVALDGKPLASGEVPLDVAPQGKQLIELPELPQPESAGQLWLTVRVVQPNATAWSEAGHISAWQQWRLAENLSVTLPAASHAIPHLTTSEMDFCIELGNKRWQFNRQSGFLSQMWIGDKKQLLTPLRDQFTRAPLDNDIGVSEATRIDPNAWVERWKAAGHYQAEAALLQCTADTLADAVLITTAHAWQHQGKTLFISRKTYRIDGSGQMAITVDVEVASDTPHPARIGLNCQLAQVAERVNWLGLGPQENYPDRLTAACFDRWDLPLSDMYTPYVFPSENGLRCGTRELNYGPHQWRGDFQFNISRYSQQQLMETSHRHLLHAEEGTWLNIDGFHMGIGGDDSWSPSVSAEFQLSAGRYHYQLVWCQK
Sequence of Mu-type opioid receptor (P35372 whole entry): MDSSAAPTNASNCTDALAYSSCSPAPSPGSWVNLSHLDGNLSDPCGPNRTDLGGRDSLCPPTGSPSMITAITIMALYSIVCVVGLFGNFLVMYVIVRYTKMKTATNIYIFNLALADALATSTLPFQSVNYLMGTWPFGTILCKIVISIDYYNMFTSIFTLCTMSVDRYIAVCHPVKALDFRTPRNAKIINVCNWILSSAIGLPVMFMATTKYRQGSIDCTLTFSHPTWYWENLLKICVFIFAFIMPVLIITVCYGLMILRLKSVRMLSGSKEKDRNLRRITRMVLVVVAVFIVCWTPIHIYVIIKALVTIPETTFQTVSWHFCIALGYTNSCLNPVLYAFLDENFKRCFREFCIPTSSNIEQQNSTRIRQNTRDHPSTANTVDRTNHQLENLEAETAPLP

CC(=O)OCCNc1cc(Sc2nc3ccccc3[nH]2)c2nonc2c1[N+](=O)[O-]
inactive: IC50 (Beta Lactamase) 10 µM | IC50 [5] > 32 µM | EC50 (Beta-galactosidase) > 31.5 µM | EC50 (Mu-type opioid receptor) > 32 µM | EC50 [9] > 32 µM
17.1 µM: IC50 [3]
active: IC50 [1] 116 µM | IC50 (Fatty acid synthase [2]) 2.59 µM | IC50 (Fatty acid synthase [4]) 1.75 µM | CC50 [6] 13.5 µM | AC50 [7] 11.5 µM | AC50 [8] 6.26 µM | IC50 (cells) 5.83 µM | IC50 (CHO) 3.06 µM | CC50 [10] 12.4 µM | EC50 [11] 3.66 µM | EC50 [12] 4.91 µM | CC50 [13] 19.9 µM | EC50 [14] 4.64 µM | AC50 [15] 1.86 µM | IC50 [16] 5.01 µM | AC50 [17] 17.5 µM | EC50 [18] 2.47 µM

C(=N\Nc1cc(N2CCCC2)nc(N2CCCC2)n1)/c1ccccc1
active: IC50 [20] 89.9 µM | IC50 [21] 15.1 µM
inactive: IC50 [19] > 99 µM | IC50 (Caspase-3 [22]) > 99 µM

N#Cc1ccc(-c2nc(/C=C/c3ccccc3)no2)cc1
inactive: IC50 [19] > 99 µM | IC50 [20] > 99 µM | IC50 [21] > 99 µM | IC50 (Caspase-3 [22]) > 99 µM

Cc1cc(N/N=C/c2ccc3c(c2)OCO3)nc2ccccc12
active: IC50 [23] 4.64 µM | IC50 (Caspase-3 [24]) 27.6 µM | IC50 [25] 17.6 µM | IC50 [26] 21.9 µM
